Reference: patent publication US9447038B2 (SANOFI, priority 2012, dated 2016)
Counter-ions that a name gives are not always drawn.

These molecules were tested against human CXCR3-A receptor (Homo sapiens (Human), UniProt P49682) (assay: 125I-CXCL10 competition radioligand binding assay). Details: displacement of 125I-CXCL10 from membranes of CHO cells expressing human recombinant CXCR3-A.
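Note: One-hour incubation of membranes with tracer, bound radioligand separated by glass fibre filtration, IC50 derived from four-parameter nonlinear fit of competition curves.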

Sequence of human CXCR3-A receptor (P49682 whole entry): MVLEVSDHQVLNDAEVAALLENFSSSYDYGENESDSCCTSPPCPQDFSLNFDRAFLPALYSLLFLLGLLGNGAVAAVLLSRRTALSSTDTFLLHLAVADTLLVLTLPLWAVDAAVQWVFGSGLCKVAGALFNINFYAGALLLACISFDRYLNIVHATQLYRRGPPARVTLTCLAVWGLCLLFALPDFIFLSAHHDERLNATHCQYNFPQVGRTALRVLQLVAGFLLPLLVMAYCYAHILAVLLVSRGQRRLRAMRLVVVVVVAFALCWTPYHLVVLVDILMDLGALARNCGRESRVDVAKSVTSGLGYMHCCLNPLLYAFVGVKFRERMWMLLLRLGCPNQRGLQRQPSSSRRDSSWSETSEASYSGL

Row | SMILES | IC50
1 | CCN(Cc1ccc(OCCn2c(=O)ccn(C)c2=O)c(OC)c1)C(c1ccc(Cl)cc1)C(C)C(=O)O (centres unmarked) [Example 153, 3-(4-Chloro-phenyl)-3-(ethyl-{3-methoxy-4-[2-(3-methyl-2,6-dioxo-3,6-dihydro-2H-pyrimidin-1-yl)-ethoxy]-benzyl}-amino)-2-methyl-propionic acid] | 635 nM
2 | O=C(O)CC(c1ccc(Cl)c(Cl)c1)N(Cc1ccc(OCCN2C(=O)CCC2=O)c(F)c1)CC1CCCC1 (centres unmarked) [Example 65, 3-(Cyclopentylmethyl-{4-[2-(2,5-dioxo-pyrrolidin-1-yl)-ethoxy]-3-fluoro-benzyl}-amino)-3-(3,4-dichloro-phenyl)-propionic acid] | 186 nM
3 | Cc1cc(CN(CC2CC2)C(CC(=O)O)c2ccc3c(c2)CCO3)ccc1OCCn1c(=O)ccn(C)c1=O (centres unmarked) [Example 131, 3-(Cyclopropylmethyl-{3-methyl-4-[2-(3-methyl-2,6-dioxo-3,6-dihydro-2H-pyrimidin-1-yl)-ethoxy]-benzyl}-amino)-3-(2,3-dihydro-benzofuran-5-yl)-propionic acid] | 42 nM
4 | CCCCN(Cc1ccc(OCCN2C(=O)CCC2=O)c(CC)c1)C(CC(=O)O)c1ccc(Cl)cc1 (centres unmarked) [Example 87, 3-(Butyl-{4-[2-(2,5-dioxo-pyrrolidin-1-yl)-ethoxy]-3-ethyl-benzyl}-amino)-3-(4-chloro-phenyl)-propionic acid] | 31 nM
5 | Cc1cc(CN(CC2CCCC2)[C@@H](CC(=O)O)c2ccc(Cl)c(Cl)c2)ccc1OCCN1C(=O)CN(C)C1=O [Example 200, (S)-3-(Cyclopentylmethyl-{3-methyl-4-[2-(3-methyl-2,5-dioxo-imidazolidin-1-yl)-ethoxy]-benzyl}-amino)-3-(3,4-dichloro-phenyl)-propionic acid; hydrochloride] | 234 nM
6 | Cc1cc(CN(CC2CCCCC2)[C@H](CC(=O)O)c2ccc(Cl)c(F)c2)ccc1OCCN1C(=O)CN(C)C1=O [Example 35, (R)-3-(4-Chloro-3-fluoro-phenyl)-3-(cyclohexylmethyl-{3-methyl-4-[2-(3-methyl-2,5-dioxo-imidazolidin-1-yl)-ethoxy]-benzyl}-amino)-propionic acid] | 75 nM
7 | COc1cc(CN(CC(C)C)C2c3ccc(Cl)cc3CC2C(=O)O)ccc1OCCN1C(=O)CCC1=O (centres unmarked) [Example 170, 5-Chloro-1-({4-[2-(2,5-dioxo-pyrrolidin-1-yl)-ethoxy]-3-methoxy-benzyl}-isobutyl-amino)-indan-2-carboxylic acid] | 345 nM
8 | Cc1cc(CN(CC2CC2)[C@H](CC(=O)O)c2ccc(Cl)c(Cl)c2)ccc1OCCN1C(=O)CCC1=O [Example 27, (R)-3-(Cyclopropylmethyl-{4-[2-(2,5-dioxo-pyrrolidin-1-yl)-ethoxy]-3-methyl-benzyl}-amino)-3-(3,4-dichloro-phenyl)-propionic acid] | 86 nM
9 | Cc1cc(CN(CC2CCCCC2)C(CC(=O)O)c2ccc3c(c2)CCO3)ccc1CCCN1C(=O)CCC1=O (centres unmarked) [Example 143, 3-(Cyclohexylmethyl-{4-[3-(2,5-dioxo-pyrrolidin-1-yl)-propyl]-3-methyl-benzyl}-amino)-3-(2,3-dihydro-benzofuran-5-yl)-propionic acid] | 211 nM
10 | COc1cc(CN(CC2CC2)C(CC(=O)O)c2ccc(Cl)c(Cl)c2)ccc1OCCN1C(=O)CCC1=O (centres unmarked) [Example 45, 3-(Cyclopropylmethyl-{4-[2-(2,5-dioxo-pyrrolidin-1-yl)-ethoxy]-3-methoxy-benzyl}-amino)-3-(3,4-dichloro-phenyl)-propionic acid] | 66 nM
11 | CCCCN(Cc1ccc(OCCN2C(=O)CCC2=O)c(C)c1)C(CC(=O)O)c1ccc(Cl)c(Cl)c1 (centres unmarked) [Example 81, 3-(Butyl-{4-[2-(2,5-dioxo-pyrrolidin-1-yl)-ethoxy]-3-methyl-benzyl}-amino)-3-(3,4-dichloro-phenyl)-propionic acid] | 100 nM
12 | Cc1cc(CN(CC2CCCCC2)C(CC(=O)O)c2ccc(Cl)c(Cl)c2)ccc1OCCN1C(=O)CCC1=O (centres unmarked) [Example 83, 3-(Cyclohexylmethyl-{4-[2-(2,5-dioxo-pyrrolidin-1-yl)-ethoxy]-3-methyl-benzyl}-amino)-3-(3,4-dichloro-phenyl)-propionic acid] | 302 nM
13 | Cc1cc(CN(CC2CCCC2)C(CC(=O)O)c2ccc3c(c2)CCO3)ccc1OCCN1C(=O)CCC1=O (centres unmarked) [Example 147, 3-(Cyclopentylmethyl-{4-[2-(2,5-dioxo-pyrrolidin-1-yl)-ethoxy]-3-methyl-benzyl}-amino)-3-(2,3-dihydro-benzofuran-5-yl)-propionic acid] | 46 nM
14 | Cc1cc(CN(CC2CCC2)[C@@H](CC(=O)O)c2ccc(Cl)cc2)ccc1OCCN1C(=O)CCC1=O [Example 71, (S)-3-(4-Chloro-phenyl)-3-(cyclobutylmethyl-{4-[2-(2,5-dioxo-pyrrolidin-1-yl)-ethoxy]-3-methyl-benzyl}-amino)-propionic acid] | 54 nM
15 | CCCCN(Cc1ccc(OCCN2C(=O)CCC2=O)c(OC)c1)C(CC(=O)O)c1ccc(Cl)c(F)c1 (centres unmarked) [Example 43, 3-(Butyl-{4-[2-(2,5-dioxo-pyrrolidin-1-yl)-ethoxy]-3-methoxy-benzyl}-amino)-3-(4-chloro-3-fluoro-phenyl)-propionic acid] | 23 nM
16 | COc1cc(CN(CC(C)C)[C@@H](C(=O)O)c2ccc(Cl)c(Cl)c2)ccc1OCCN1C(=O)CCC1=O [Example 110, (R)-(3,4-Dichloro-phenyl)-({4-[2-(2,5-dioxo-pyrrolidin-1-yl)-ethoxy]-3-methoxy-benzyl}-isobutyl-amino)-acetic acid] | 786 nM
17 | COc1cc(CN(CC2CC2)[C@H](C(=O)O)c2ccc(Cl)c(Cl)c2)ccc1OCCN1C(=O)CCC1=O [Example 108, (S)-(Cyclopropylmethyl-{4-[2-(2,5-dioxo-pyrrolidin-1-yl)-ethoxy]-3-methoxy-benzyl}-amino)-(3,4-dichloro-phenyl)-acetic acid] | 200 nM
18 | CCc1cc(CN(CC2CCCC2)C(CC(=O)O)c2ccc(Cl)c(F)c2)ccc1OCCN1C(=O)CCC1=O (centres unmarked) [Example 94, 3-(4-Chloro-3-fluoro-phenyl)-3-(cyclopentylmethyl-{4-[2-(2,5-dioxo-pyrrolidin-1-yl)-ethoxy]-3-ethyl-benzyl}-amino)-propionic acid] | 71 nM
19 | Cc1cc(CN(CC(C)C)C(CC(=O)O)c2ccc(Cl)cc2)ccc1CCCN1C(=O)CCC1=O (centres unmarked) [Example 137, 3-(4-Chloro-phenyl)-3-({4-[3-(2,5-dioxo-pyrrolidin-1-yl)-propyl]-3-methyl-benzyl}-isobutyl-amino)-propionic acid] | 240 nM
20 | COc1cc(CN(CCC(F)(F)F)C(CC(=O)O)c2ccc(Cl)cc2)ccc1OCCn1c(=O)ccn(C)c1=O (centres unmarked) [Example 130, 3-(4-Chloro-phenyl)-3-[{3-methoxy-4-[2-(3-methyl-2,6-dioxo-3,6-dihydro-2H-pyrimidin-1-yl)-ethoxy]-benzyl}-(3,3,3-trifluoro-propyl)-amino]-propionic acid] | 1250 nM
21 | Cc1cc(CN(CCC(F)(F)F)C(CC(=O)O)c2ccc(Cl)cc2)ccc1OCCn1c(=O)ccn(C)c1=O (centres unmarked) [Example 129, 3-(4-Chloro-phenyl)-3-[{3-methyl-4-[2-(3-methyl-2,6-dioxo-3,6-dihydro-2H-pyrimidin-1-yl)-ethoxy]-benzyl}-(3,3,3-trifluoro-propyl)-amino]-propionic acid] | 2150 nM
22 | CCCN(Cc1ccc(SCCN2C(=O)CCC2=O)c(OC)c1)C(CC(=O)O)c1ccc(Cl)c(Cl)c1 (centres unmarked) [Example 192, 3-(3,4-Dichloro-phenyl)-3-({4-[2-(2,5-dioxo-pyrrolidin-1-yl)-ethylsulfanyl]-3-methoxy-benzyl}-propyl-amino)-propionic acid] | 55 nM
23 | COc1cc(CN(CC2CCCCC2)C(CC(=O)O)c2ccc(Cl)c(Cl)c2)ccc1OCCN1C(=O)CCC1=O (centres unmarked) [Example 50, 3-(Cyclohexylmethyl-{4-[2-(2,5-dioxo-pyrrolidin-1-yl)-ethoxy]-3-methoxy-benzyl}-amino)-3-(3,4-dichloro-phenyl)-propionic acid] | 98 nM
